# In US20230089073A1 (Carmot Therapeutics, Inc., priority 2021, published 2023):
# Target: T1, human GLP-1 receptor (Homo sapiens, UniProt P43220)
# T1 construct: expressed in transfected cells
# Assay: GLP-1R cAMP Assay
# Assay type: cell-based
# Settings: cAMP accumulation in CHO cells stably overexpressing the human GLP-1 receptor; 30 min treatment; HitHunter cAMP kit; read-out: EC50
# How it was run: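 Luminescent enzyme-complementation detection of cAMP, read after cell lysis and overnight incubation, with dose-response curve fitting. Stimulation lasted 30 min, using 20-point triplicate dosing on CHO cells (10,000 per well) stably overexpressing human GLP-1R.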
# T1 sequence (P43220 24-463): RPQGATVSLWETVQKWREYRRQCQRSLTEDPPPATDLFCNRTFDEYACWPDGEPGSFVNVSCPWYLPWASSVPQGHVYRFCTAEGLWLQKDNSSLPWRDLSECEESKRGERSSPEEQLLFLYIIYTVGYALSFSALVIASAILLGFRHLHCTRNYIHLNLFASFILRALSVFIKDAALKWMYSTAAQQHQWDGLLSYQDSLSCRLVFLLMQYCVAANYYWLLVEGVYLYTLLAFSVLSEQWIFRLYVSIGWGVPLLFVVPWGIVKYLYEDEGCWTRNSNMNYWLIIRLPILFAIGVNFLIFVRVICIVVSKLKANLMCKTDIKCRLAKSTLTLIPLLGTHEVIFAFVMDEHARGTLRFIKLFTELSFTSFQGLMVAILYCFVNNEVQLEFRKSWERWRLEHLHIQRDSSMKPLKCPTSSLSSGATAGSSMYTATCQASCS
row,Structure (SMILES),EC50
1,"N#Cc1cc(F)ccc1OCc1cc(OC2CCN(Cc3nc4ccc(C(=O)O)cc4n3C[C@@H]3CCO3)CC2)ccn1 [Compound 183, 2-{[4-({2-[(2-cyano-4-fluorophenoxy)methyl]pyridin-4-yl}oxy)piperidin-1-yl]methyl}-1-{[(2S)-oxetan-2-yl]methyl}-1H-1,3-benzodiazole-6-carboxylic acid]",< 50 nM
2,"O=C(O)c1ccc2nc(CN3CCC(Cc4ccc(COc5ccc(Cl)cc5Cl)o4)CC3)n(C[C@@H]3CCO3)c2c1 [Example 72, (S)-2-((4-((5-((2,4-Dichlorophenoxy)methyl)furan-2-yl)methyl)piperidin-1-yl)methyl)-1-(oxetan-2-ylmethyl)-1H-benzo[d]imidazole-6-carboxylic acid]",< 50 nM
3,"Cc1ccc(OCc2cccc(CC3CCN(Cc4nc5ccc(C(=O)O)cc5n4C[C@@H]4CCO4)CC3)n2)c(CO)c1 [Example 146, (S)-2-((4-((6-((2-(Hydroxymethyl)-4-methylphenoxy)methyl)pyridin-2-yl)methyl)piperidin-1-yl)methyl)-1-(oxetan-2-ylmethyl)-1H-benzo[d]imidazole-6-carboxylic acid]",< 50 nM
4,"O=C(O)c1ccc2nc(CN3CCc4[nH]c5c(OCc6ccc(Cl)cc6F)cccc5c4C3)n(C[C@@H]3CCO3)c2c1 [Example 90, (S)-2-((6-((4-Chloro-2-fluorobenzyl)oxy)-1,3,4,5-tetrahydro-2H-pyrido[4,3-b]indol-2-yl)methyl)-1-(oxetan-2-ylmethyl)-1H-benzo[d]imidazole-6-carboxylic acid]",> 500 nM
5,"CCn1cncc1Cn1c(CN2CCC(Cc3cnc(COc4ccc(Cl)cc4C#N)o3)CC2)nc2ccc(C(=O)O)cc21 [Compound 138, 2-{[4-({2-[(4-chloro-2-cyanophenoxy)methyl]-1,3-oxazol-5-yl}methyl)piperidin-1-yl]methyl}-1-[(1-ethyl-1H-imidazol-5-yl)methyl]-1H-1,3-benzodiazole-6-carboxylic acid]",< 50 nM
6,"O=C(O)c1ccc2nc(CN3CCC(Oc4ccnc(COc5ccc(Cl)cc5F)c4)CC3)n(C[C@@H]3CCO3)c2c1 [Compound 250, 2-{[4-({2-[(4-chloro-2-fluorophenoxy)methyl]pyridin-4-yl}oxy)piperidin-1-yl]methyl}-1-{[(2S)-oxetan-2-yl]methyl}-1H-1,3-benzodiazole-6-carboxylic acid]",< 50 nM
7,"O=C(O)c1ccc2nc(CN3CCC(Oc4cccc(COc5ccc(Cl)cc5F)c4)CC3)n(C[C@@H]3CCO3)c2c1 [Compound 221, 2-[(4-{3-[(4-chloro-2-fluorophenoxy)methyl]phenoxy}piperidin-1-yl)methyl]-1-{[(2S)-oxetan-2-yl]methyl}-1H-1,3-benzodiazole-6-carboxylic acid]",< 50 nM
8,C[C@H]1C[C@@H](Oc2ccnc(COc3ccc(C#N)cc3Cl)c2)CCN1Cc1nc2ccc(C(=O)O)cc2n1C[C@@H]1CCO1 [Compound 366],< 50 nM
9,N#Cc1ccc(OCc2nccc(OC3CCN(Cc4nc5ccc(C(=O)O)cc5n4CC4(CF)CC4)CC3)n2)c(F)c1 [Compound 343],< 50 nM
10,"N#Cc1ccc(OCc2cccc(C(=O)N3CCN(Cc4nc5ccc(C(=O)O)cc5n4C[C@@H]4CCO4)CC3)c2)c(F)c1 [Compound 68, 2-[(4-{3-[(4-cyano-2-fluorophenoxy)methyl]benzoyl}piperazin-1-yl)methyl]-1-{[(2S)-oxetan-2-yl]methyl}-1H-1,3-benzodiazole-6-carboxylic acid]",> 500 nM
11,"CC(Oc1ccc(C#N)cc1F)c1nccc(OC2CCN(Cc3nc4ccc(C(=O)O)cc4n3C[C@@H]3CCO3)CC2)n1 (mixture of isomers) [Example 480, 2-((4-((2-(1-(4-Cyano-2-fluorophenoxy)ethyl)pyrimidin-4-yl)oxy)piperidin-1-yl)methyl)-1-(((S)-oxetan-2-yl)methyl)-1H-benzo[d]imidazole-6-carboxylic acid]",50 to 500 nM
12,"Cc1ccc(N(C)c2cncc(C(=O)N3CCN(Cc4nc5ccc(C(=O)O)cc5n4C[C@@H]4CCO4)CC3)c2)c(Cl)c1 [Compound 85, 2-[(4-{5-[(2-chloro-4-methylphenyl)(methyl)amino]pyridine-3-carbonyl}piperazin-1-yl)methyl]-1-{[(2S)-oxetan-2-yl]methyl}-1H-1,3-benzodiazole-6-carboxylic acid]",50 to 500 nM
13,"O=C(O)c1ccc2nc(CN3CCC(Oc4cccc(COc5ncc(Cl)cc5F)c4)CC3)n(C[C@@H]3CCO3)c2c1 [Compound 288, 2-{[4-(3-{[(5-chloro-3-fluoropyridin-2-yl)oxy]methyl}phenoxy)piperidin-1-yl]methyl}-1-{[(2S)-oxetan-2-yl]methyl}-1H-1,3-benzodiazole-6-carboxylic acid]",> 500 nM
14,"Cc1ccc(N(C)c2cccc(C(=O)N3CCN(Cc4nc5ccc(C(=O)O)cc5n4C[C@@H]4CCO4)CC3)n2)c(Cl)c1 [Compound 101, 2-[(4-{6-[(2-chloro-4-methylphenyl)(methyl)amino]pyridine-2-carbonyl}piperazin-1-yl)methyl]-1-{[(2S)-oxetan-2-yl]methyl}-1H-1,3-benzodiazole-6-carboxylic acid]",50 to 500 nM
15,"O=C(O)c1ccc2nc(CN3CCC(Oc4cccc(COc5ccc(Cl)cc5Cl)c4)CC3)n(Cc3cnco3)c2c1 [Example 216, 2-((4-(3-((2,4-Dichlorophenoxy)methyl)phenoxy)piperidin-1-yl)methyl)-1-(oxazol-5-ylmethyl)-1H-benzo[d]imidazole-6-carboxylic acid]",< 50 nM
16,"O=C(O)c1ccc2nc(CN3CCC(Cc4cnc(COc5ncc(C6CC6)cc5Cl)o4)CC3)n(C[C@@H]3CCO3)c2c1 [Example 136, (S)-2-((4-((2-(((3-Chloro-5-cyclopropylpyridin-2-yl)oxy)methyl)oxazol-5-yl)methyl)piperidin-1-yl)methyl)-1-(oxetan-2-ylmethyl)-1H-benzo[d]imidazole-6-carboxylic acid]",< 50 nM
17,"O=C(O)c1ccc2nc(CN3CCC(Oc4cccc(COc5cccc(Cl)c5Cl)c4)CC3)n(C[C@@H]3CCO3)c2c1 [Compound 243, 2-[(4-{3-[(2,3-dichlorophenoxy)methyl]phenoxy}piperidin-1-yl)methyl]-1-{[(2S)-oxetan-2-yl]methyl}-1H-1,3-benzodiazole-6-carboxylic acid]",< 50 nM
18,"Cc1ccc(Oc2cccc(CN3CCN(Cc4nc5ccc(C(=O)O)cc5n4C[C@@H]4CCO4)CC3)c2)cc1 [Compound 35, 2-[(4-{[3-(4-methylphenoxy)phenyl]methyl}piperazin-1-yl)methyl]-1-{[(2S)-oxetan-2-yl]methyl}-1H-1,3-benzodiazole-6-carboxylic acid]",> 500 nM
19,"CCn1cncc1Cn1c(CN2CCc3[nH]c4ccc(OCc5ccc(Cl)cc5Cl)cc4c3C2)nc2ccc(C(=O)O)cc21 [Compound 143, 2-({8-[(2,4-dichlorophenyl)methoxy]-1H,2H,3H,4H,5H-pyrido[4,3-b]indol-2-yl}methyl)-1-[(1-ethyl-1H-imidazol-5-yl)methyl]-1H-1,3-benzodiazole-6-carboxylic acid]",50 to 500 nM
20,N#Cc1ccc(OCc2cc(OC3CCN(Cc4nc5ccc(C(=O)O)nc5n4C[C@@H]4CCO4)CC3)ccn2)c(F)c1 [Compound 379],< 50 nM
21,"O=C(O)c1ccc2nc(CN3CCC(Oc4ccnc(COc5ccc(Cl)cc5Cl)n4)CC3)n(C[C@@H]3CCO3)c2c1 [Example 304, (S)-2-((4-((2-((2,4-Dichlorophenoxy)methyl)pyrimidin-4-yl)oxy)piperidin-1-yl)methyl)-1-(oxetan-2-ylmethyl)-1H-benzo[d]imidazole-6-carboxylic acid]",< 50 nM
22,"N#Cc1ccc(OCc2cc(OC3CCN(Cc4nc5c(F)cc(C(=O)O)cc5n4C[C@@H]4CCO4)CC3)c(F)cn2)c(F)c1 [Compound 478, 2-{[4-({2-[(4-cyano-2-fluorophenoxy)methyl]-5-fluoropyridin-4-yl}oxy)piperidin-1-yl]methyl}-4-fluoro-1-{[(2S)-oxetan-2-yl]methyl}-1H-1,3-benzodiazole-6-carboxylic acid]",< 50 nM
23,O=C(O)c1cc(F)c2nc(CN3CCC(Oc4ccnc(COc5ccc(Cl)cc5Cl)n4)CC3)n(C[C@@H]3CCO3)c2c1 [Compound 305],< 50 nM
24,"CCn1cncc1Cn1c(CN2CCC(Cc3ccc(COc4ccc(Cl)cc4Cl)o3)CC2)nc2ccc(C(=O)O)cc21 [Compound 109, 2-{[4-({5-[(2,4-dichlorophenoxy)methyl]furan-2-yl}methyl)piperidin-1-yl]methyl}-1-[(1-ethyl-1H-imidazol-5-yl)methyl]-1H-1,3-benzodiazole-6-carboxylic acid]",< 50 nM
25,"CN(C)C(=O)c1ccc(OCc2ccc(C(=O)N3CCN(Cc4nc5ccc(C(=O)O)cc5n4C[C@@H]4CCO4)CC3)o2)c(F)c1 [Compound 49, 2-{[4-(5-{[4-(dimethylcarbamoyl)-2-fluorophenoxy]methyl}furan-2-carbonyl)piperazin-1-yl]methyl}-1-{[(2S)-oxetan-2-yl]methyl}-1H-1,3-benzodiazole-6-carboxylic acid]",> 500 nM
26,"Cc1ccc(N(C)c2ccnc(C(=O)N3CCN(Cc4nc5ccc(C(=O)O)cc5n4C[C@@H]4CCO4)CC3)c2)c(Cl)c1 [Compound 88, 2-[(4-{4-[(2-chloro-4-methylphenyl)(methyl)amino]pyridine-2-carbonyl}piperazin-1-yl)methyl]-1-{[(2S)-oxetan-2-yl]methyl}-1H-1,3-benzodiazole-6-carboxylic acid]",> 500 nM
27,O=C(O)c1ccc2nc(CN3CCC(Oc4ccnc(COc5ccc(Cl)cc5F)c4)CC3)n(CC34CC(CO3)C4)c2c1 [Compound 333],< 50 nM
28,"N#Cc1cc(C2CC2)ccc1OCc1nccc(OC2CCN(Cc3nc4c(F)cc(C(=O)O)cc4n3C[C@@H]3CCO3)CC2)n1 [Compound 508, (S)-2-((4-((2-((2-cyano-4-cyclopropylphenoxy)methyl)pyrimidin-4-yl)oxy)piperidin-1-yl)methyl)-4-fluoro-1-(oxetan-2-ylmethyl)-1H-benzo[d]imidazole-6-carboxylic acid]",< 50 nM
